Assays:
[1] = system: primary embryonic hippocampal cultures; experiment: VitE complementation (vitE depletion) test on primary neuronal cultures; assay type: cell-based, rats; conditions: for rescue of survival of vitE depleted cultures: 10^-7 M and 10^-6 M
Experimental: Primary embryonic hippocampal cultures were prepared essentially as described previously (Pauwels et al., Van Aschouw, H. P., Peeters, L., Moeremans, M., Leysen, J. E. (1992) Chronic treatment with sabeluzole protects cultured rat brain neurons from the neurotoxic effects of excitatory amino acids. Synapse, 12:271-280). Hippocampal formations of rats at embryonic day 17 were dissected and dissociated in 0.05% trypsin, 0.1 mg/ml DNase I in DMEM (Dulbecco Modified Eagle Medium). Heat-inactivated horse serum (HS) was added to a concentration of 4%, and the cells were centrifuged, washed with DMEM, and resuspended in DMEM/Ham's F12 (3:1) containing 10% HS. The cells were plated at a density of 4×10^5 cells/cm^2 in poly L-lysine (0.001%) precoated multiwell-24 plates. On day 1 in culture, the medium was changed to chemically defined CDM-R12 medium (DMEM-HEPES/Ham's F12 (3:1) containing 0.26% bovine serum albumin, 30 nM sodium selenite, 3 nM 3,3',5 triiodo-L-thyronine, 0.35 μM retinol, 0.3 μM retinol acetate, 2.3 μM DL-a-tocopherol, 2.1 μM DL-a-tocopherol acetate, 3.6 μM linolenic acid, 3.6 μM linoleic acid, 0.125% human transferrin, […], 57.7 nM corticosterone, 49 U/I insulin, 0.4 μM biotin, 10 μM L-carnitine, 83 μM D(+)-galactose, 3.3 μM glutathione, 10 μM ethanolamine, 0.1 mM putrescine; Romijn, H. J., van Huizen, F., Wolters, P. S. (1984) Towards an improved serum-free, chemically defined medium for long-term culturing of cerebral cortex tissue. Neurosci. Behav. Rev., 8:301-334). Acute and prolonged pretreatment of the, cultures was essentially as described previously (Pauwels et al., 1992). Drugs were dissolved, and diluted in 10% or 1% hydroxypropyl-β-cyclodextrin such that the final concentrations of the solvent in the acute and chronic exposures were 0.1% and 0.01% respectively. Compound A as used in the following examples is [(RRSR)+(RRRS)+(SSSR) +(SSRS)]-α-[[[2-(chroman-2-yl)-2-hydroxy-ethyl]amino]methyl]-6-hydroxy-2-chromanmethanol ethanedioate (1:1).
For vitE depletion experiments, primary cultures were set up as above, but on day 1 in culture, the medium was changed to chemically defined CDM-R12 medium with (control) or without DL-a-tocopherol (vitE) and DL-a-tocopherol acetate, in the presence or absence of test coumpound. […] Addition of compounds could rescue the cultures. […] The EC50 for complementation of vitE refers to the concentration of the compound required to restore culture survival to 50% of the survival seen for the culture grown in vitE supplemented medium. Seven concentrations of each compound were tested in triplicate, the number of independent experiments is indicated in the table, and the mean EC50 -value±SD was calculated.
Primary neuronal cultures depend on the presence of the antioxidant vitE in the culture medium for survival in vitro. When vitE depleted medium is used to grow the cultures, survival drops to ±20% of control. Compounds with antioxidative properties are able to complement the lack of vitE, and as such can when added to the culture medium, rescue vitE devoid cultures. Several nebivolol derivatives were tested at 10^-7 M and 10^-6 M in the vitE depletion test on primary neuronal cultures.
When nebivolol derivatives were administered during culture, the cultures could be rescued to a certain extent. 100% vitE complementation refers to the survival of a cell culture which is indifferent from a vitE containing cell culture.
When hydroxynebivolol was administered during culture, the cultures could be rescued. The EC50 refers to the concentration at which the culture is rescued for 50%, as measured by cytoplasmic LDH activity.

β-1 = conditions: EP-0,334,429; cited from earlier work
[2] = atenolol, propanolol, prazosin, hydralazine and its own (SRRR) enantiomer; EP-0,334,429; cited from earlier work

O[C@H](CNC[C@@H](O)[C@H]1CCc2cc(F)ccc2O1)[C@@H]1CCc2cc(F)ccc2O1 [Compound 1-nebivolol, (SRRR) α,α'-iminobis(methylene)bis[6-fluoro-2-chroman-methanol]]
% vitE complementation ([1]; 10^-6 M): 24 ± 26% | % vitE complementation ([1]; 10^-7 M): 22 ± 20% | rescue of survival of vitE depleted cultures [1]: able to rescue survival of vitE depleted cultures to a certain extent | β-1 blocking activity (β-1): potent and selective β-1 blocking agent

O[C@@H](CNC[C@H](O)[C@H]1CCc2cc(F)ccc2O1)[C@@H]1CCc2cc(F)ccc2O1 [d-nebivolol, (RSSS) α,α'-iminobis(methylene)bis[6-fluoro-2-chroman-methanol]]
% vitE complementation ([1]; 10^-6 M): 19 ± 22% | % vitE complementation ([1]; 10^-7 M): 12 ± 17% | rescue of survival of vitE depleted cultures [1]: able to rescue survival of vitE depleted cultures to a certain extent | β-1 blocking activity (β-1): not to be a potent β-1 blocking agent | potentiation of antihypertensive agents [2]: potentiator for a series of antihypertensive agents

Source: patent US5874461A, “Use of Nebivolol as an anti-atherogenic” (priority 1995, dated 1999)
